Measured values from ChEMBL document CHEMBL1201862, “PubChem BioAssay data set” (2004).
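Values below derive from 48-hour exposures of cells grown in 96-well plates, with endpoints linearly interpolated between the two concentrations bracketing the appropriate inhibition level. GI50 = concentration required for 50% inhibition of growth.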 Activity calls are given as the source filed them. Rule as the data show it: active = GI50 up to about 1.1 µM and inactive = higher.

Legend:
Test in all cases: NCI-60 cell line screen, 48 h
SK-MEL-5 = tested on: SK-MEL-5
HL-60 = tested on: HL-60
UACC-257 = tested on: UACC-257
COLO 205 = tested on: COLO 205
SNB-75 = tested on: SNB-75
A498 = tested on: A498
OVCAR-8 = tested on: OVCAR-8
RPMI-8226 = tested on: RPMI-8226
LOX IMVI = tested on: LOX IMVI
UO-31 = tested on: UO-31
OVCAR-3 = tested on: OVCAR-3
U-251 = tested on: U-251
786-0 = tested on: 786-0
M14 = tested on: M14
TK-10 = tested on: TK-10

Measured: GI50

CC(C)NC(=O)OCc1c2c(n(C)c1COC(=O)NC(C)C)-c1ccccc1CC2
inactive: SK-MEL-5 14.4 µM | HL-60 2.55 µM | UACC-257 15.2 µM | COLO 205 8.05 µM | SNB-75 14.1 µM | A498 23.4 µM | OVCAR-8 12 µM | RPMI-8226 3.23 µM | LOX IMVI 9.31 µM | UO-31 14.8 µM | OVCAR-3 14.2 µM | U-251 9.18 µM

Cc1ccc(NC(=O)CSc2nnc(Cc3ccccc3)o2)cc1
inactive: SK-MEL-5 > 100 µM | 786-0 > 100 µM | M14 > 100 µM | UACC-257 > 100 µM | COLO 205 > 100 µM | SNB-75 > 100 µM | A498 > 100 µM | OVCAR-8 97.9 µM | RPMI-8226 > 100 µM | LOX IMVI > 100 µM | UO-31 > 100 µM | OVCAR-3 > 100 µM | TK-10 > 100 µM | U-251 > 100 µM

CC(Oc1ccc(OCC2CCCCC2)cc1)C(=O)NCc1ccco1 (centres undefined)
inactive: SK-MEL-5 15.7 µM | 786-0 34.6 µM | M14 18.7 µM | HL-60 31.5 µM | UACC-257 23.6 µM | SNB-75 25.6 µM | A498 24.7 µM | OVCAR-8 24.9 µM | LOX IMVI 20.7 µM | UO-31 28.3 µM | OVCAR-3 40.6 µM | TK-10 84.7 µM | U-251 36.6 µM

COc1cccc(/C=C2\C(=O)N(C(=O)c3ccc(NC(C)=O)cc3)N=C2C)c1
inactive: SK-MEL-5 56.1 µM | 786-0 > 100 µM | M14 > 100 µM | UACC-257 > 100 µM | COLO 205 > 100 µM | SNB-75 > 100 µM | OVCAR-8 > 100 µM | LOX IMVI > 100 µM | UO-31 > 100 µM | OVCAR-3 > 100 µM | TK-10 > 100 µM | U-251 > 100 µM

CCO/C([O-])=C(\C(=O)c1ccccc1)[n+]1c(C)sc2ccccc21
inactive: SK-MEL-5 16.7 µM | 786-0 > 100 µM | M14 > 100 µM | HL-60 53.2 µM | UACC-257 13.5 µM | COLO 205 83.6 µM | SNB-75 > 100 µM | A498 > 100 µM | OVCAR-8 > 100 µM | RPMI-8226 59 µM | LOX IMVI 49.2 µM | UO-31 50.6 µM | OVCAR-3 > 100 µM | TK-10 > 100 µM | U-251 > 100 µM

Nc1cc[nH]c(=O)n1
inactive: SK-MEL-5 > 100 µM | 786-0 > 100 µM | M14 > 100 µM | HL-60 > 100 µM | UACC-257 > 100 µM | COLO 205 > 100 µM | SNB-75 > 100 µM | A498 > 100 µM | OVCAR-8 > 100 µM | RPMI-8226 > 100 µM | LOX IMVI > 100 µM | UO-31 > 100 µM | OVCAR-3 > 100 µM | TK-10 > 100 µM | U-251 > 100 µM

O=C(Cn1ccnc1[N+](=O)[O-])c1ccc(F)cc1
inactive: SK-MEL-5 > 100 µM | 786-0 > 100 µM | M14 > 100 µM | HL-60 > 100 µM | UACC-257 > 100 µM | COLO 205 > 100 µM | SNB-75 > 100 µM | A498 > 100 µM | OVCAR-8 > 100 µM | RPMI-8226 > 100 µM | LOX IMVI > 100 µM | UO-31 > 100 µM | OVCAR-3 > 100 µM | TK-10 > 100 µM | U-251 > 100 µM

COC(=O)C1(c2ccc(OC)cc2)NC(c2ccccc2)C2C(=O)N(c3ccc(OC)cc3)C(=O)C21 (centres undefined)
inactive: SK-MEL-5 > 100 µM | 786-0 > 100 µM | M14 > 100 µM | HL-60 > 100 µM | UACC-257 > 100 µM | COLO 205 > 100 µM | SNB-75 > 100 µM | A498 > 100 µM | OVCAR-8 > 100 µM | RPMI-8226 > 100 µM | LOX IMVI > 100 µM | UO-31 > 100 µM | TK-10 > 100 µM | U-251 > 100 µM

C/C(CC(=O)Nc1cccc([N+](=O)[O-])c1)=N\NC(=O)CC#N
inactive: SK-MEL-5 > 100 µM | 786-0 > 100 µM | M14 > 100 µM | HL-60 > 100 µM | UACC-257 > 100 µM | COLO 205 > 100 µM | SNB-75 > 100 µM | OVCAR-8 > 100 µM | RPMI-8226 > 100 µM | LOX IMVI > 100 µM | UO-31 > 100 µM | OVCAR-3 > 100 µM | TK-10 > 100 µM | U-251 > 100 µM

c1ccc2c(c1)[nH]c1c2ncc2[nH]c3ccccc3c21
inactive: SK-MEL-5 5.48 µM | 786-0 2.32 µM | M14 2.75 µM | HL-60 2 µM | UACC-257 > 10 µM | COLO 205 2.45 µM | SNB-75 3.52 µM | A498 2.72 µM | OVCAR-8 3.23 µM | RPMI-8226 2.26 µM | LOX IMVI 1.94 µM | UO-31 4.05 µM | OVCAR-3 2.54 µM | TK-10 7.33 µM | U-251 2.43 µM
